One data set concerns NLRC4 and NLRP3 complex. Nature of the data set: Assembly of NLRC4 and NLRP3 complex in human RPE cells, Proximity Ligation Assay. The class given is cell-based. The note with it: biotinylated Alu RNA 100 pmol, PLA (FIG. 37). How it is done: FIG. 37. Alu RNA (SEQ ID NO: 86) induces the assembly of NLRC4 and NLRP3 complex. Human RPE cells were transfected with biotinylated Alu RNA (SEQ ID NO: 86 at 100 pmol) by LIPOFECTAMINE™ 3000 brand transfection reagent (Lipo; ThermoFisher Scientific). The assembly of NLRC4 and NLRP3 complex was evaluated by Proximity Ligation Assay (PLA). […] The signal of NLRC4-NLRP3 complexes is indicated by the white arrow.
Human RPE cells were treated with biotinylated Alu RNA (SEQ ID NO: 86 at 100 pmol). The assembly of NLRC4 and NLRP3 complex was evaluated by Proximity Ligation Assay (PLA).

The test system of another data set is NLRC4. Nature of the data set: Alu RNA induced NLRC4 protein oligomerization in BMDM, Tris-glycine native PAGE. The class given is cell-based, mouse. The note with it: Alu RNA 100 pmol, indicated time points (FIG. 4). How it is done:
FIG. 4. Alu RNA (SEQ ID NO: 86) induced NLRC4 protein oligomerization. Mouse BMDM was treated with Alu RNA (SEQ ID NO: 86; 100 pmol) at the indicated time points. NLRC4 oligomers were detected by Tris-glycine native PAGE. Loading control show by Actin. […] The bands of oligomeric NLRC4 protein were indicated by black arrow.
The activated NLRC4 inflammasome undergoes oligomerization by assembling into high-molecular mass multiprotein complexes. We first investigated in situ assembling of NLRC4 and apoptosis speck (ASC) like protein complexes in response to SINE RNA treatment of BMDMs. Immunofluorescence studies show increased NLRC4 and ASC specks in SINE RNA-treated BMDMs compared to mock-treated cells (FIG. 3A). To assess NLRC4 inflammasome assembly, WT and NLRC4 KO BMDM cells were treated with Alu RNA (SEQ ID NO: 86). Disuccinimidyl suberate (DSS) cross-linked lysates were resolved using denaturing SDS-PAGE to detect ASC oligomers and cell lysates were resolved using native polyacrylamide gel electrophoresis (NATIVE-PAGE) to detect NLRC4 oligomerization. […] NLRC4/ASC oligomerization is essential for the cleavage of pro-caspase-1 into its active form p20 and IL-1β release.

Data set [1] concerns the target T1, DDX17 (Homo sapiens, UniProt Q92841). The data set can be described thus: DDX17 translocation in THP-1 cells, cell fractionation and immunoblot. The class given is cell-based. The note with it: THP-1, Alu RNA 100 pmol (FIG. 36). From the text:
FIG. 36. Alu RNA (SEQ ID NO: 86) induces DDX17 translocation in human cells. Human monocytes (THP-1) were transfected with Alu RNA (SEQ ID NO: 86 at 100 pmol) using LIPOFECTAMINE™ 3000 brand transfection reagent (Lipo; ThermoFisher Scientific). Cell lysates were collected and subjected to cell fractionation. Immunoblots of DDX17 and Histone H3 were used to evaluate the subcellular distribution of DDX17. […] The bands of DDX17 in cell nucleus and cytoplasm were indicated by black arrows.
Human monocytes (THP-1) were treated with Alu RNA (SEQ ID NO: 86 at 100 pmol). Cell lysates were collected and subjected to cell fractionation. Immunoblots of DDX17 and Histone H3 were used to evaluate the subcellular distribution of DDX17.
(In general: Immunoblotting shows a protein as a band on a membrane.)

Data set [2] addresses T1, DDX17. The data set can be described thus: CLIP (cross-linking immunoprecipitation) of biotin-Alu RNA and DDX17 in HEK293 cells. The class given is binding. On the set-up: Myc; expressed in transfected cells; host or cells: HEK293. As to conditions: UV cross-linking, streptavidin pull down (FIG. 8B). From the text: FIGS. 8A-8C. CLIP (cross-linking immunoprecipitation) on Alu RNA (SEQ ID NO: 86) and Ddx17 interaction. Human HEK293 cell transfected with btn-Alu RNA (SEQ ID NO: 86), cross-linked by ultraviolet light, pull-downed by biotin-streptavidin. The binding of Ddx17 determined by western blot. FIG. 8A. Schematic of CLIP (cross-linking immunoprecipitation) for biotin or myc-tag mediated immunoprecipitation. FIG. 8B. […] WCL is whole cell lysates. The bands of pull downed DDX17 proteins by Alu RNA (SEQ ID NO: 86) were indicated by black arrow. FIG. 8C. The HEK293 cells were transfected with myc-tagged DDX17 and biotin-Alu RNA (SEQ ID NO: 86). Cells were cross-linked and lysates for immunoprecipitation by Anti-myc beads. The total RNA was extracted, and were the Alu RNA (SEQ ID NO: 86) were detected with Northern blot. […] The bands of pull-downed Alu RNA (SEQ ID NO: 86) by myc-DDX17 proteins were indicated by black arrow.
Next, we sought to identify the sensor responsible for Alu RNA (SEQ ID NO: 86) induced NLRC4 inflammasome activation. We employed cross-linking immunoprecipitation (CLIP)-mass spectrometry to reveal protein interaction partners of Alu RNA (SEQ ID NO: 86). […] Immunoprecipitation of the cell lysate with anti-Streptavidin (FIG. 8B) or Myc antibody (FIG. 8C) pulled down biotin-labelled Alu RNA (SEQ ID NO: 86), as detected by northern blotting. […]

The next data set relates to caspase-1. Nature of the data set: Alu RNA induced cleavage of caspase-1 precursor in BMDM. As to conditions: Alu RNA transfection (FIG. 2). It is filed as cell-based, mouse. How it is done:
FIG. 2. SINE RNA induced NLRC4 phosphorylation (site S533) through protein Kinase C Delta. BMDM cell pre-treated with the LRRK2 Kinase inhibitor gsk2578215a (GSK; 5-(2-Fluoro-4-pyridinyl)-2-(phenylmethoxy)-N-3-pyridinyl-benzamide; CAS Number 1285515-21-0; Sigma-Aldrich, St. Louis, Mo., United States of America) or the PKC delta inhibitor Rottlerin (CAS Number 82-08-6; Sigma-Aldrich) at 2 μM or 5 μM, and treated with Alu RNA (SEQ ID NO: 86) transfection or transfection reagent alone (Mock). NLRC4 phosphorylation (P-NLRC4) and supernatant caspase-1 activation were detected by SDS-PAGE. […] PKC delta inhibitor, Rottlerin blocked Alu RNA-induced NLRC4 phosphorylation and caspase-1 activation. The p-NLRC4 and caspase-1 (p20) bands were indicated with black arrows.

T1 sequence (Q92841 whole entry, species assumed): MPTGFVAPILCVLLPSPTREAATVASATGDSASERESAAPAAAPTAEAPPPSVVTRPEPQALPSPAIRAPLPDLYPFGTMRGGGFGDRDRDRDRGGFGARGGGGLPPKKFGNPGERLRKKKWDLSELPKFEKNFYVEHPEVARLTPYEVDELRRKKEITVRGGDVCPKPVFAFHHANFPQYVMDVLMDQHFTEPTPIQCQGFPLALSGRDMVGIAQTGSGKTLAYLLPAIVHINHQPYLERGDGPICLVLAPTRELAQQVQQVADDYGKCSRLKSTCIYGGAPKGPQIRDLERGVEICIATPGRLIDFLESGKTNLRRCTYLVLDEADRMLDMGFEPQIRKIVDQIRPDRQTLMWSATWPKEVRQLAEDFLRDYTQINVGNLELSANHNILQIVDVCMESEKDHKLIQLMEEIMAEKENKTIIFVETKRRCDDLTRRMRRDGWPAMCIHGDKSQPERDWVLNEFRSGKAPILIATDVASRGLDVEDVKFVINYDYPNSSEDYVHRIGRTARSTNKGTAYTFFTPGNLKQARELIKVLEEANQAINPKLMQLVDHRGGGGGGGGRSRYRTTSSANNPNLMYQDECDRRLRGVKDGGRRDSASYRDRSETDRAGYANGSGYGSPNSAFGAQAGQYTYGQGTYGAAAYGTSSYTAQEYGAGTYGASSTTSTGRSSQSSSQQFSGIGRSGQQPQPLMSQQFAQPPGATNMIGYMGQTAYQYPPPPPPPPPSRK

Turning to Alu RNA: human SINE RNA, SEQ ID NO: 86, in the data set on NLRC4 and NLRP3 complex, the “assembly of NLRC4 and NLRP3 complex” value was “induced the assembly”. In addition, the “formation of NLRC4 oligomers, BMDM” value in the data set on NLRC4 is “induces the formation of NLRC4 oligomers”. In addition, the “subcellular distribution of DDX17” value with DDX17 [1] is “induced DDX17 translocation from the nucleus to the cytoplasm”. The “binding of DDX17 to biotin-Alu RNA” value in the data set with DDX17 [2] was “physically binds”. Moreover, the “cleavage of caspase-1 precursor (pro) to p20” value with caspase-1 is given as “induced”.
